Source: US11021481B2, “Substituted isoindolin-1-ones and 2,3-dihydro-1h-pyrrolo[3,4-c]pyridin-1-ones as HPK1 antagonists” (Nimbus Saturn, Inc., priority 2019, dated 2021)

biological target: HPK1 (Homo sapiens (Human), UniProt Q92918); assay: HPK1 biochemical enzyme assay (microfluidic mobility shift assay); details: 1.5 nM HPK1, ATP 1 mM final, 30 min preincubation, 60 min at RT, Caliper EZ Reader; read-out: HPK1 1000UMATP caliper IC50
Summary of the method: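 Ten-point compound titrations (top 3 μM final) preincubated 30 min with HPK1 and substrate, then reaction started with 1 mM ATP and 1 μM substrate, 5 mM MgCl2. After 60 min at RT, reaction terminated and product measured by microfluidic mobility shift.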

Sequence of HPK1 (Q92918 whole entry): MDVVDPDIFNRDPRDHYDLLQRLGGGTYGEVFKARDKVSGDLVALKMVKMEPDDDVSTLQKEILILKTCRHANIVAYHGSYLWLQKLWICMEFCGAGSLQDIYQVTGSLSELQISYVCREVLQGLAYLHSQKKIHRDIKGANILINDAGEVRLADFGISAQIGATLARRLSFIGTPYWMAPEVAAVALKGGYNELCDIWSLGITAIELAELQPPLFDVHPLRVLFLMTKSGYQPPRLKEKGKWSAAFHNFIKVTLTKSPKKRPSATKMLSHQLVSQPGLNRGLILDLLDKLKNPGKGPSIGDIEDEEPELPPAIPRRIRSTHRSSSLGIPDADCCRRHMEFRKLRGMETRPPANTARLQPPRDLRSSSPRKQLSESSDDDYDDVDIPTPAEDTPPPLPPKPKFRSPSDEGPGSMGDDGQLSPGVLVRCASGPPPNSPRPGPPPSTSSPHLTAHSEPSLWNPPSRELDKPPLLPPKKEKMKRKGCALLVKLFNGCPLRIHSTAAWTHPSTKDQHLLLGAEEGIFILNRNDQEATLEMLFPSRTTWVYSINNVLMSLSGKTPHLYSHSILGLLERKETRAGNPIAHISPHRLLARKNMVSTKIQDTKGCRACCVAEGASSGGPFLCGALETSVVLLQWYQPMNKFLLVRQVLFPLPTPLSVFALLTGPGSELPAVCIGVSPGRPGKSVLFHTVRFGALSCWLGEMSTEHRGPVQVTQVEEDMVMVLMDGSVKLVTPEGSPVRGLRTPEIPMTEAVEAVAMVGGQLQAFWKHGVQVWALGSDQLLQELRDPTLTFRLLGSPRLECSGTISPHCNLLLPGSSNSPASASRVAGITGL

SMILES | IC50
O=C1NCc2c(-c3cccc4ccnn34)ncc(Nc3ccc(N4CCC(O)CC4)cn3)c21 [I-368, 7-((5-(4-hydroxypiperidin-1-yl)pyridin-2-yl)amino)-4-(pyrazolo[1,5-a]pyridin-7-yl)-2,3-dihydro-1H-pyrrolo[3,4-c]pyridin-1-one] | > 1000 nM
CN1CCN(c2ccc(Nc3cnc(-c4c[nH]c5ccccc45)c4c3C(=O)NC4)nc2)CC1 [I-2, 4-(1H-indol-3-yl)-7-[[5-(4-methylpiperazin-1-yl)-2-pyridyl]amino]-2,3-dihydropyrrolo [3,4-c]pyridin-1-one] | 100 to 1000 nM
Cn1ccc2c(-c3ccc(Nc4ccc(N5CCNCC5)cn4)c4c3C(C)(C)NC4=O)ccnc21 [I-273, 3,3-dimethyl-4-(1-methyl-1H-pyrrolo[2,3-b]pyridin-4-yl)-7-((5-(piperazin-1-yl)pyridin-2-yl)amino)isoindolin-1-one] | > 1000 nM
CN1C[C@@H](c2ccc(Nc3ccc(-c4cnc5cnccn45)c4c3C(=O)NC4)nc2)CCC1=O [I-325, (R)-4-(imidazo[1,2-a]pyrazin-3-yl)-7-((5-(1-methyl-6-oxopiperidin-3-yl)pyridin-2-yl)amino)isoin-dolin-1-one] | < 100 nM
O=C1NCc2c(-c3cnc4cc(F)ccn34)ncc(Nc3ccc(N4CCC(O)CC4)cn3)c21 [I-167, 4-(7-fluoroimidazo [1,2-a]pyridin-3-yl)-7-[[5-(4-hydroxy-1-piperidyl)-2-pyridyl]amino]-2,3-dihydropyrrolo [3,4-c]pyridin-1-one] | < 100 nM
CN1CCN(c2ccc(Nc3ccc(-c4cnn5cccnc45)c4c3C(=O)NC4)nc2)CC1 [I-112, 7-[[5-(4-methylpiperazin-1-yl)-2-pyridyl]amino]-4-pyrazolo[1,5-a]pyrimidin-3-yl-isoindolin-1-one] | < 100 nM
N#Cc1ccn2c(-c3ccc(Nc4ccc(N5CCNCC5)cn4)c4c3CNC4=O)cnc2c1 [I-120] | < 100 nM
COCC1CN(c2ccc(Nc3ccc(-c4cnc5cnccn45)c4c3C(=O)NC4)nc2)CCO1 (stereo in doubt) [I-333, (S)-4-(imidazo[1,2-a]pyrazin-3-yl)-7-((5-(2-(methoxymeth-yl)morpholino)-pyridin-2-yl)amino)isoin-dolin-1-one] | < 100 nM
C[C@H](c1ccc(Nc2ccc(-c3cnc4cc(F)ccn34)c3c2C(=O)NC3)nc1)N1CCC(O)CC1 [I-527, (R)-4-(7-fluoroimidazo [1,2-a]pyridin-3-yl)-7-((5-(1-(4-hydroxypiperidin-1-yl)ethyl)pyridin-2-yl)amino)isoin-dolin-1-one] | < 100 nM
CN(C)C(C)(C)[C@]1(O)CCCN(c2ccc(Nc3ccc(-c4cnc5cc(F)ccn45)c4c3C(=O)NC4)nc2)C1 [I-715, (S)-7-((5-(3-(2-(dimethylami-no)propan-2-yl)-3-hydroxy-piperidin-1-yl)pyridin-2-yl)amino)-4-(7-fluoroimidazo [1,2-a]pyridin-3-yl)isoindolin-1-one] | < 100 nM
CN1CCN(c2ccc(Nc3cnc(-c4c(-c5ccccc5)[nH]c5ccccc45)c4c3C(=O)NC4)nc2)CC1 [I-141, 7-((5-(4-Methylpiperazin-1-yl)pyridin-2-yl)amino)-4-(2-phenyl-1H-indol-3-yl)-2,3-dihydro-1H-pyrrolo[3,4-c]pyridin-1-one] | < 100 nM
CNCc1nc(Nc2ccc(-c3cnc4cc(F)ccn34)c3c2C(=O)NC3)ccc1C1CCOC1 (stereo in doubt) [I-722, (S)-4-(7-fluoroimidazo [1,2-a]pyridin-3-yl)-7-((6-((methyl-amino)methyl)-5-(tetrahydrofuran-3-yl)pyridin-2-yl)amino)isoin-dolin-1-one] | < 100 nM
Cc1cnc2c(-c3ccc(Nc4ccc(N5CCN(C)CC5)cn4)c4c3CNC4=O)cnn2c1 [I-111, 7-[[5-(4-methylpiperazin-1-yl)-2-pyridyl]amino]-4-(6-methylpyrazolo[1,5-a]pyrimidin-3-yl)isoindolin-1-one] | < 100 nM
CN(C)C1(C2CN(c3ccc(Nc4ccc(-c5cnc6cc(F)ccn56)c5c4C(=O)NC5)nc3)CCO2)CC1 (stereo in doubt) [I-686, (R)-7-((5-(2-(1-(dimethylami-no)cyclopropyl)morphoIino)py-ridin-2-yl)amino)-4-(7-fluoroimidazo [1,2-a]pyridin-3-yl)isoindolin-1-one] | < 100 nM
CN1CCN(c2cccc(Nc3cnc(-c4ccnc5c4ccn5C)c4c3C(=O)NC4)n2)CC1 [I-327, 4-(1-methyl-1H-pyrrolo[2,3-b]pyridin-4-yl)-7-((6-(4-methylpiperazin-1-yl)pyridin-2-yl)amino)-2,3-dihydro-1H-pyrrolo[3,4-c]pyridin-1-one] | < 100 nM
Cc1ccn2c(-c3ccc(Nc4ccc(N5CCO[C@H](C(C)(C)O)C5)cn4)c4c3CNC4=O)cnc2n1 [I-645, (S)-7-((5-(2-(2-hydroxypropan-2-yl)morpliolino)pyridin-2-yl)amino)-4-(7-methylimidazo [1,2-a]pyrimidin-3-yl) isoindolin-1-one] | < 100 nM

Now from value to compound:

IC50 | SMILES
< 100 nM | O=C1NCc2c(-c3cnc4cc(F)ccn34)ccc(Nc3ccc([C@H]4CCOC4)c(CN4CC[C@@H](O)C4)n3)c21 [I-783, 4-(7-f1uoroimidazo [1,2-a]pyridin-3-yl)-7-((6-(((R)-3-hydroxypyrrol-idin-1-yl)methyl)-5-((R)-tetrahydrofuran-3-yl)pyridin-2-yl)amino)isoin-dolin-1-one]
< 100 nM | Cc1ccc2ncc(-c3ccc(Nc4ccc(N5CCC(O)CC5)cn4)c4c3CNC4=O)n2c1 [I-134, 7-[[5-(4-hydroxy-1-piperidyl)-2-pyridyl]amino]-4-(6-methylimidazo [1,2-a]pyridin-3-yl)isoindolin-1-one]
< 100 nM | O=C1NCc2c(-c3cnc4cc(F)ccn34)ccc(Nc3ccc([C@H]4CCOC4)c(CNCC(F)F)n3)c21 (single isomer, unassigned) [I-739]
< 100 nM | Cc1cc2c(-c3ncc(Nc4ccc(N5CCC[C@H](C(C)(C)O)C5)cn4)c4c3CNC4=O)ccnc2n1C [I-229]
< 100 nM | CNC1(C)CCN(c2ccc(Nc3cnc(-c4ccnc5c4ccn5C)c4c3C(=O)NC4)nc2)CC1 [I-244, 7-[[5-[4-methyl-4-(methylamino)-1-piperidyl]-2-pyridyl]-amino]-4-(1-methylpyrrolo [2,3-b]pyridin-4-yl)-2,3-dihydropyrrolo [3,4-c]pyridin-1-one]
< 100 nM | CN1CCN(Cc2ccc(Nc3ccc(-c4cnc5c(F)c(C(F)F)ccn45)c4c3C(=O)NC4)nc2)C(C)(C)C1 [I-672, 4-(7-(difluorometh-yl)-8-fluoroimidazo [1,2-a]pyridin-3-yl)-7-((5-((2.2.4-trimethylpiper-azin-1-yl)methyl)pyri-din-2-yl)amino)isoin-dolin-1-one]
< 100 nM | O=C1NCc2c(-c3cnc4cc(F)ccn34)ccc(Nc3ccc(N4CC[C@@H](F)[C@H](O)C4)cn3)c21 [I-347, 7-((5-((3R,4R)-4-fluoro-3-hydroxy-piperidin-1-yl)pyridin-2-yl)amino)-4-(7-fluoroimidazo [1,2-a]pyridin-3-yl)isoindolin-1-one]
< 100 nM | CCNC(=O)c1ccc(Nc2ccc(-c3cnc4cc(F)ccn34)c3c2C(=O)NC3)nc1CN(C)C [I-791, 2-((dimethylamino)-methyl)-N-ethyl-6-((7-(7-fluoroimidazo [1,2-a]pyridin-3-yl)-3-oxoisoindolin-4-yl)amino)nico-tinamide]
< 100 nM | CCN(CC)Cc1nc(Nc2ccc(-c3cnc4cc(F)ccn34)c3c2C(=O)NC3)ccc1[C@@H]1CCOC1 [I-511, (S)-7-((6-((diethylamino)methyl)-5-(tetrahydrofuran-3-yl)pyridin-2-yl)amino)-4-(7-fluoroimidazo [1,2-a]pyridin-3-yl)isoindolin-1-one]
< 100 nM | CC(C)(O)[C@@H]1CN(c2ccc(Nc3ccc(-c4cnc5cccnn45)c4c3C(=O)NC4)nc2)CCO1 [I-474, 7-[[5-[(2S)-2-(1-hydroxy-1-methyl-ethyl)morpholin-4-yl]-2-pyridyl]amino]4-imidazo[1,2-b]pyridazin-3-yl-isoindolin-1-one]
< 100 nM | O=C1NCc2c(-c3cnc4cc(Cl)ccn34)ccc(Nc3ccc(N4CCC(O)CC4)cn3)c21 [I-187, 4-(7-chloroimidazo [1,2-a]pyridin-3-yl)-7-[[5-(4-hydroxy-1-piperidyl)-2-pyridyl]amino] isoindolin-1-one]
< 100 nM | CN(C)Cc1nc(Nc2ccc(-c3cnc4cc(F)ccn34)c3c2C(=O)NC3)ccc1C1CCC1 [I-788, 7-((5-cyclobutyl-6-((dimethylamino)-methyl)pyri-din-2-yl)amino)-4-(7-fluoroimidazo [1,2-a]pyridin-3-yl)isoindolin-1-one]
< 100 nM | CN(C)Cc1nc(Nc2ccc(-c3cnc4cnccn34)c3c2C(=O)NC3)ccc1[C@H]1CCOC1 [I-713, (R)-7-((6-((dimethylamino)-methyl)-5-(tetrahydrofuran-3-yl)pyridin-2-yl)amino)-4-(imidazo[1,2-a]pyrazin-3-yl)isoindolin-1-one]
< 100 nM | COCCN(C)Cc1nc(Nc2ccc(-c3cnc4cc(F)ccn34)c3c2C(=O)NC3)ccc1C1CCOC1 (stereo in doubt) [I-727, (R)-4-(7-fluoroimidazo [1,2-a]pyridin-3-yl)-7-((6-(((2-methoxyethyl) (methyl)-amino)methyl)-5-(tetrahydrofuran-3-yl)pyridin-2-yl)amino)isoin-dolin-1-one]
< 100 nM | COc1ccc2c(-c3ccc(Nc4ccc(N5CCN(C)CC5)cn4)c4c3CNC4=O)c[nH]c2c1 [I-28, 4-(6-methoxy-1H-indol-3-yl)-7-[[5-(4-methylpiperazin-1-yl)-2-pyridyl]amino] isoindolin-1-one]
< 100 nM | CCc1[nH]c2ccccc2c1-c1ccc(Nc2ccc(N3CCN(C)CC3)cn2)c2c1CNC2=O [I-34, 4-(2-ethyl-1H-indol-3-yl)-7-[[5-(4-methylpiperazin-1-yl)-2-pyridyl]amino] isoindolin-1-one]
< 100 nM | CN(C)[C@@H]1CCCc2ccc(Nc3ccc(-c4cnc5cc(F)ccn45)c4c3C(=O)NC4)nc21 [I-842, (R)-7-((8-(dimethylam-ino)-5,6,7,8-tetrahydroquin-olin-2-yl)amino)-4-(7-fluoroimidazo [1,2-a]pyridin-3-yl)isoindo1in-1-one]
